Publication PMC4770715, “LIM kinase inhibitors disrupt mitotic microtubule organization and impair tumor cell proliferation” (Oncotarget, 2015)

Legend:
Test in all cases: biochemical
Parameters in all cases: KINOMEscan active-site competition binding, percent of control (100 = no competition)
Conditions in all cases: competition binding, percent control
RAF1 = RAF1 (Homo sapiens, UniProt P04049)
RET = RET (Homo sapiens, UniProt P07949)
LATS1 = LATS1 (Homo sapiens, UniProt O95835)
EPHA8 = EPHA8 (Homo sapiens, UniProt P29322)
TLK1 = TLK1 (Homo sapiens, UniProt Q9UKI8)
EPHA4 = EPHA4 (Homo sapiens, UniProt P54764)
LCK = LCK (Homo sapiens, UniProt P06239)
TNNI3K = TNNI3K (Homo sapiens, UniProt Q59H18)
MEK2 = molecular target: T1, MEK2 (Homo sapiens, UniProt P36507)
T1 construct: gene MAP2K2

PCTK3 = molecular target: T2, PCTK3 (Homo sapiens, UniProt Q07002)
T2 construct: gene CDK18

MLK1 = molecular target: T3, MLK1 (Homo sapiens, UniProt P80192)
T3 construct: gene MAP3K9

MRCKB = molecular target: T4, MRCKB (Homo sapiens, UniProt Q9Y5S2)
T4 construct: gene CDC42BPB

PHKG2 = PHKG2 (Homo sapiens, UniProt P15735)
ADCK4 = molecular target: T5, ADCK4 (Homo sapiens, UniProt Q96D53)
T5 construct: gene COQ8B

CSNK1E = CSNK1E (Homo sapiens, UniProt P49674)
STK35 = STK35 (Homo sapiens, UniProt Q8TDR2)
PLK3 = PLK3 (Homo sapiens, UniProt Q9H4B4)
MAPKAPK5 = MAPKAPK5 (Homo sapiens, UniProt Q8IW41)
[1] = molecular target: T6, ABL1(Q252H)-phosphorylated (Homo sapiens, UniProt P00519, Q252H)
T6 construct: phosphorylated

LYN = LYN (Homo sapiens, UniProt P07948)
PRKCE = PRKCE (Homo sapiens, UniProt Q02156)
CDK4-cyclinD3 = molecular target: T7, CDK4-cyclinD3 (Homo sapiens, UniProt P11802)
T7 construct: cyclinD3

[2] = molecular target: T8, RSK3(Kin.Dom.1-N-terminal) (Homo sapiens, UniProt Q15349)
T8 construct: gene RPS6KA2; Kin.Dom.1-N-terminal

T5 sequence (Q96D53 whole entry): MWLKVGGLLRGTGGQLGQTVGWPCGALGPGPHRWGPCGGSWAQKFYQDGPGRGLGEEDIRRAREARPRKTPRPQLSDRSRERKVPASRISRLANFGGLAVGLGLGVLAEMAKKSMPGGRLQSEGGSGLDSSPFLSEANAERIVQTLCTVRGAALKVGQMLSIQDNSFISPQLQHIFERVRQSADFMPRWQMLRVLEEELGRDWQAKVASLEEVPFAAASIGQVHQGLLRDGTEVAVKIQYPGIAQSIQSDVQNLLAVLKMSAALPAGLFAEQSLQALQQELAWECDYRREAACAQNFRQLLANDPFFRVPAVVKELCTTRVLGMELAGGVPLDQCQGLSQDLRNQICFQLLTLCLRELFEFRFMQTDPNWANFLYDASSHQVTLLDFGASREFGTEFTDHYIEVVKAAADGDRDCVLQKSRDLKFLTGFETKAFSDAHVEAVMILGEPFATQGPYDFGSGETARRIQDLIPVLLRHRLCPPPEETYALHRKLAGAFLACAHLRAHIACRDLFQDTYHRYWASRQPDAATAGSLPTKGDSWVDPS
T4 sequence (Q9Y5S2 whole entry): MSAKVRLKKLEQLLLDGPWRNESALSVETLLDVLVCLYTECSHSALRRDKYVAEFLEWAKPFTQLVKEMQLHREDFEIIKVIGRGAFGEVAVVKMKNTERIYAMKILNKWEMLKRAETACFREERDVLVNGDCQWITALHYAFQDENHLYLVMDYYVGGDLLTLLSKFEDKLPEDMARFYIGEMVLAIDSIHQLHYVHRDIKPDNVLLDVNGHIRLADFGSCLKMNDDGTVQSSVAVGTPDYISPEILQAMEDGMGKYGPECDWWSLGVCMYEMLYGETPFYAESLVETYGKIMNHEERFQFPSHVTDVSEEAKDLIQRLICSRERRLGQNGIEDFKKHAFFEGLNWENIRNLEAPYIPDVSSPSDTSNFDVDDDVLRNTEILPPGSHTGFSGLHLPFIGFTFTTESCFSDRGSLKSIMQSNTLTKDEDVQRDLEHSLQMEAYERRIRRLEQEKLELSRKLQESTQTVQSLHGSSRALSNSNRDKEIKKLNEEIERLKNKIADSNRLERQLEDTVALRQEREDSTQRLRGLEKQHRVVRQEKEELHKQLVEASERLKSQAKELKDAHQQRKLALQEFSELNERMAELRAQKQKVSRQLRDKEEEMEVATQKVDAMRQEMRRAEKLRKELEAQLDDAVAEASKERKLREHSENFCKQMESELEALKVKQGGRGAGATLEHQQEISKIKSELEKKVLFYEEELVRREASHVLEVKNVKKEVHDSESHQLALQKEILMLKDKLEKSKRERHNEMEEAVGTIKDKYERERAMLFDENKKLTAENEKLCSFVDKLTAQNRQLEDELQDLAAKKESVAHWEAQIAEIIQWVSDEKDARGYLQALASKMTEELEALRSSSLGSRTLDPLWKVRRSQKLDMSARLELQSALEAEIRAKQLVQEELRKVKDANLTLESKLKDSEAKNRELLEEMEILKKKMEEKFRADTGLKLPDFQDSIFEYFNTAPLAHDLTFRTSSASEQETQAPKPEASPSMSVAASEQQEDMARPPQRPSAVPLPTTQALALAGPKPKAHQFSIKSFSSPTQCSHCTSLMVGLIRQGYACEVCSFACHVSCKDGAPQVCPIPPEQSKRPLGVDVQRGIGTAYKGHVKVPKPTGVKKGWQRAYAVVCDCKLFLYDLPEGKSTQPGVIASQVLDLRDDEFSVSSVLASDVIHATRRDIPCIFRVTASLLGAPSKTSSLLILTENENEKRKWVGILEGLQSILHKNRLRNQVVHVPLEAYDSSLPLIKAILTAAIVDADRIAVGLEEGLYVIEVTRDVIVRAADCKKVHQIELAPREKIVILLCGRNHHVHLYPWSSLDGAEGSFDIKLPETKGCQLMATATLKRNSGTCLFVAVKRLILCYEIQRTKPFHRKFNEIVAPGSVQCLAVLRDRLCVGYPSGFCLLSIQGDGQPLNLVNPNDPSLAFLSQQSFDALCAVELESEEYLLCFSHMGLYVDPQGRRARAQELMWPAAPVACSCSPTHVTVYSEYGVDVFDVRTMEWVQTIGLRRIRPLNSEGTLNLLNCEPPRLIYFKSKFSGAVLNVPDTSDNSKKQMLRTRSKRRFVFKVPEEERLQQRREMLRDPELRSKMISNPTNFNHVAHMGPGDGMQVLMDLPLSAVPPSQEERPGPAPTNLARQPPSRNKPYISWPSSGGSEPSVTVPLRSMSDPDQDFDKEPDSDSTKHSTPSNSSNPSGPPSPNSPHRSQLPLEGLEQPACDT
T3 sequence (P80192 whole entry): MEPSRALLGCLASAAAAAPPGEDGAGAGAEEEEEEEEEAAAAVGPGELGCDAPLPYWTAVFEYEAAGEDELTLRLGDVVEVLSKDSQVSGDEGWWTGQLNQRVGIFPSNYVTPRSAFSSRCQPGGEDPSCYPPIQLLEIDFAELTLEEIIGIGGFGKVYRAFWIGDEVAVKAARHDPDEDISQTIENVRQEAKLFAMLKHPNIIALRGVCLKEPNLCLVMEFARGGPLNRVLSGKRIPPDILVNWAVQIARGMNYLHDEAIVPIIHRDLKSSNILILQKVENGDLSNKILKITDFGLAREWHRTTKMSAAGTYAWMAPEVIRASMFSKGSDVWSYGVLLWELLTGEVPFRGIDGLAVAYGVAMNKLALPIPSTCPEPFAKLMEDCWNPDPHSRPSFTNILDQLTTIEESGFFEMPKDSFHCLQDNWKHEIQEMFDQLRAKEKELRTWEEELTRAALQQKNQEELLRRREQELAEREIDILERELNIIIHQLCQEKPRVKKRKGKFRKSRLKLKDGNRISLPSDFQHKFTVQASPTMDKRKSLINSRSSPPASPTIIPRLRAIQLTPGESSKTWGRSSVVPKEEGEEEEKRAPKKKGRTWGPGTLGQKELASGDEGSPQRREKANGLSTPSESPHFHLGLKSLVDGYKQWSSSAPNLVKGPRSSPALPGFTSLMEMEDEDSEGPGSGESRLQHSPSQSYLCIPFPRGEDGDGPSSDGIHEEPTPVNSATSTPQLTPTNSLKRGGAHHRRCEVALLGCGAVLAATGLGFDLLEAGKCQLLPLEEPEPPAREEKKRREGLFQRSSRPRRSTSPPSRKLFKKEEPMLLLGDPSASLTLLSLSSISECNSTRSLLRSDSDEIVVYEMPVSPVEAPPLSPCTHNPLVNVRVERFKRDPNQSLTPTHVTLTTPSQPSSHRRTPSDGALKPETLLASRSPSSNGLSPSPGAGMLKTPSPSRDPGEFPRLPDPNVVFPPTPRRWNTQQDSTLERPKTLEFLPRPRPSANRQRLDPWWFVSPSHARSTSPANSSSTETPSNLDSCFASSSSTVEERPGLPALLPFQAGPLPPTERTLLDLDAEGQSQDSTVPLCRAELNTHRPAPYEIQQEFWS
Sequence of LATS1 (O95835 whole entry): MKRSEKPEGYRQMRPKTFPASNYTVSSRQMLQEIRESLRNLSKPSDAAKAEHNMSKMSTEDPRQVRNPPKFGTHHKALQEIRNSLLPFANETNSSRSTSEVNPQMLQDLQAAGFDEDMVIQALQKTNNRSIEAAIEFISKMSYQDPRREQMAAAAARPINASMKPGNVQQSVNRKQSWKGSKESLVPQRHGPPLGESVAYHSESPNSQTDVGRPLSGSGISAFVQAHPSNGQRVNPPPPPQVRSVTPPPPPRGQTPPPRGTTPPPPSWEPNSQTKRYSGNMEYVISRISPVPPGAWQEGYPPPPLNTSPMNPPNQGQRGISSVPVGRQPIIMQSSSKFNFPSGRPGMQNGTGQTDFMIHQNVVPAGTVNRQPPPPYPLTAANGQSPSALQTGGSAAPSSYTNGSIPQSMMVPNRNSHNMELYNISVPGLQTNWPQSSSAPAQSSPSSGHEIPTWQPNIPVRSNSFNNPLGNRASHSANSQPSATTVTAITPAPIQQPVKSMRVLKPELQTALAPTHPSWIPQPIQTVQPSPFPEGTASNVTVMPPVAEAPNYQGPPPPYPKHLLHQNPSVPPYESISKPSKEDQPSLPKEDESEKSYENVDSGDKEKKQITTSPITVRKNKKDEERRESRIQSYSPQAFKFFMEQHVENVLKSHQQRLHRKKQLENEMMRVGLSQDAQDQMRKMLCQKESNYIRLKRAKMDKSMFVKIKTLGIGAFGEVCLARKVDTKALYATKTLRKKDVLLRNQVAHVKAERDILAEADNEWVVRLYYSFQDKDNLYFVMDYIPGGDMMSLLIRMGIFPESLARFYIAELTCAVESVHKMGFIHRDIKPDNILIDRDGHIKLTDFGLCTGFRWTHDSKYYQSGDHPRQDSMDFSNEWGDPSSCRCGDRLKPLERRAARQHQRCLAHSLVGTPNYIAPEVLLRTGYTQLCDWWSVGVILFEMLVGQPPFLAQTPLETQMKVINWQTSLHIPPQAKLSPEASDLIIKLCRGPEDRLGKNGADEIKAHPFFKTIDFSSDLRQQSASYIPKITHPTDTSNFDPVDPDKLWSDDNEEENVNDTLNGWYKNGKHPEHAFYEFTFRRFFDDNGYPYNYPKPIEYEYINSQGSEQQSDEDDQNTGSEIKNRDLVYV
Sequence of LCK (P06239 whole entry): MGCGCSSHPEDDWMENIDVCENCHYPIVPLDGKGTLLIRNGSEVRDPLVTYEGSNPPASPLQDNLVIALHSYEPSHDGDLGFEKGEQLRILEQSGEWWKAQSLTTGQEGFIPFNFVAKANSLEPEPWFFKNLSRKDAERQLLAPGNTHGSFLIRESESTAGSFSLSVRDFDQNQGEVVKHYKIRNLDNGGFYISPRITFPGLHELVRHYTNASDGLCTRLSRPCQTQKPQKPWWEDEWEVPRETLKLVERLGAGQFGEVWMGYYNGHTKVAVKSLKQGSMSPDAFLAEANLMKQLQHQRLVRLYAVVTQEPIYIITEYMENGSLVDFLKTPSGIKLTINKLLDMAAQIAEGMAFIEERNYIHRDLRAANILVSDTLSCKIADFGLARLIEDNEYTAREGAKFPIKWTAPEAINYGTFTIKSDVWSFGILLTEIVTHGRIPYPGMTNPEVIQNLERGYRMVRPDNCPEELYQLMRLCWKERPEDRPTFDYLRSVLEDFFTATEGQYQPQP

With `COc1ccc(-c2cnccc2-c2cnc(NC(=O)C(C)C)s2)c(C(F)(F)F)c1` [CRT0105446, N-{5-[3-(4-Methoxy-2-trifluoromethyl-phenyl)-pyridin-4-yl]-hiazol-2-yl}-isobutyramide] the remaining binding at 10 µM (RAF1) was 100%, the remaining binding at 10 µM (RET) was 87% and the remaining binding at 10 µM (LATS1) was 91%. The remaining binding at 10 µM (EPHA8) was 100%, the remaining binding at 10 µM (TLK1) was 100% and the remaining binding at 10 µM (EPHA4) was 100%. For the same molecule, the remaining binding at 10 µM (LCK) was 100%, the remaining binding at 10 µM (TNNI3K) was 93% and the remaining binding at 10 µM (MEK2) was 92%. It also gave a remaining binding at 10 µM (PCTK3) of 7.7%, a remaining binding at 10 µM (MLK1) of 86% and a remaining binding at 10 µM (MRCKB) of 93%. It also gave a remaining binding at 10 µM (PHKG2) of 92%, a remaining binding at 10 µM (ADCK4) of 85% and a remaining binding at 10 µM (CSNK1E) of 42%. The remaining binding at 10 µM (STK35) was 98%, the remaining binding at 10 µM (PLK3) was 97% and the remaining binding at 10 µM (MAPKAPK5) was 95%. For the same molecule, the remaining binding at 10 µM [1] was 81%, the remaining binding at 10 µM (LYN) was 100% and the remaining binding at 10 µM (PRKCE) was 72%. It also gave a remaining binding at 10 µM (CDK4-cyclinD3) of 48% and a remaining binding at 10 µM [2] of 71%.
Work on `Cc1ccc(-c2cnccc2-c2cnc(Nc3ccc(O)cc3)s2)c(Cl)c1` [CRT0105950, 4-{5-[3-(2-Chloro-4-methyl-phenyl)-pyridin-4-yl]-thiazol-2-ylamino}-phenol] yielded a remaining binding at 10 µM (RAF1) of 85%, a remaining binding at 10 µM (RET) of 1.2% and a remaining binding at 10 µM (LATS1) of 23%. For the same molecule, the remaining binding at 10 µM (EPHA8) was 88%, the remaining binding at 10 µM (TLK1) was 62% and the remaining binding at 10 µM (EPHA4) was 94%. For the same molecule, the remaining binding at 10 µM (LCK) was 20%, the remaining binding at 10 µM (TNNI3K) was 43% and the remaining binding at 10 µM (MEK2) was 42%. The remaining binding at 10 µM (PCTK3) was 68%, the remaining binding at 10 µM (MLK1) was 13% and the remaining binding at 10 µM (MRCKB) was 78%. For the same molecule, the remaining binding at 10 µM (PHKG2) was 52%, the remaining binding at 10 µM (ADCK4) was 58% and the remaining binding at 10 µM (CSNK1E) was 11%. It also gave a remaining binding at 10 µM (STK35) of 100%, a remaining binding at 10 µM (PLK3) of 44% and a remaining binding at 10 µM (MAPKAPK5) of 97%. It also gave a remaining binding at 10 µM [1] of 74%, a remaining binding at 10 µM (LYN) of 26% and a remaining binding at 10 µM (PRKCE) of 55%. It also gave a remaining binding at 10 µM (CDK4-cyclinD3) of 13% and a remaining binding at 10 µM [2] of 0.15%.
